Consider 3 molecules from article PMC12384813.

Like-named read-outs stand apart in the source and are kept apart here. A value given as a limit tells only on which side of the number the result lay.

The subject of data set [1] is SVG p12 normal glial cells. Briefly: cells. The conditions noted are these: Homo sapiens.
Data set [2] concerns SVG p12 normal glial cells.
Data set [3] deals with U87 MG cells. Briefly: cells. It is filed as cell-based, human. Here is the method: In this procedure, U87 MG (2 × 10^4 cells per well) were seeded in BD falcon transparent 96-well plates and incubated for 24 h.
In data set [4] the test system is SVG p12 cells. As to the kind of experiment: Efflux kinetics of ^64Cu-NOTA conjugates. The data set is classed as cell-based, human. The conditions noted are these: Table S3.
In data set [5] the test system is U87 MG cells. Briefly: Efflux kinetics of ^64Cu-NOTA conjugates. It is filed as cell-based, human. The conditions noted are these: Table S3. The method, then:
(§1) U87 MG (1 × 10^5 per well) were seeded in corning 24-well plates and cultured in DMEM with 10% FBS at 37 °C. […] For uptake assay, cells were washed with PBS to collect surface-bound and internalized activity, and for internalization assay, glycine-HCl wash was performed to remove surface bound activity. Moreover, cells were harvested, counted, and radioactivity was measured using a gamma counter. Results were expressed as percentage of total activity (%) in counts per min (CPM)/10^6 cells. For efflux studies, U87 MG cells were incubated with the complexes for 1 h, then washed with PBS, and replaced with fresh medium. The retained activity was measured over 0 to 24 h after washing.

Data set [6] concerns U87 MG cells. As to the kind of experiment: Internalization of ^64Cu-NOTA conjugates (glycine-HCl wash). It is filed as cell-based, human. Conditions: Table S2. The method, then: as §1
Data set [7] relates to SVG p12 cells. Briefly: Cellular uptake of ^64Cu-NOTA conjugates. The data set is classed as cell-based, human. The conditions noted are these: Table S1.
For data set [8], the system named is U87 MG cells. Briefly: Cellular uptake of ^64Cu-NOTA conjugates. It is filed as cell-based, human. Conditions: Table S1. The method, then:
as §1

Data set [9] has as its system SVG p12 cells. Briefly: Internalization of ^64Cu-NOTA conjugates (glycine-HCl wash). It is filed as cell-based, human. The conditions noted are these: Table S2.
A short description of data set [10]: Stability by mass spectrometry at physiological pH. Conditions: pH 7.0, over 72 h. The data set is classed as physicochemical.
Data set [11] is described as follows: Solubility in aqueous media. It is filed as physicochemical. Conditions: needs 10% DMSO in saline to fully dissolve.
Where [12] appears, read: 0.5 h after 1 h incubation and wash.

Usually EC50 stands for the concentration needed to bring the measured effect to its halfway point.

Turning to `Cn1nnc2c(C(N)=O)ncn2c1=O` [Temozolomide], the EC50 in data set [1] (SVGp12, 24 h, read-out: EC50 24 h SVG p12) came to 80 ± 10 µM; in [1] (SVGp12, 48 h, read-out: EC50 48 h SVG p12), 76 ± 7 µM; in data set [2] it was 72 ± 5 µM; in data set [3] (Homo sapiens, U-87 MG, 24 h, U87 MG, read-out: EC50 24 h U87 MG), 800 ± 11 µM; in [3] (Homo sapiens, U-87 MG, 48 h, U87 MG, read-out: EC50 48 h U87 MG), 580 ± 8 µM; in data set [3] (Homo sapiens, U-87 MG, 72 h, U87 MG, read-out: EC50 72 h U87 MG) it was 575 ± 6 µM.
Consider `N=C(N)NCCC[C@@H]1NC(=O)[C@H](CCCCNC(=O)CNC(=O)COCCOCCNC(=O)CN2CCN(CC(=O)O)CCN(CC(=O)O)CC2)NC(=O)[C@@H](Cc2ccccc2)NC(=O)[C@H](CC(=O)O)NC(=O)CNC1=O` [[^64Cu]Cu-NOTA-c(RGDfK), metal not drawn], for which, in data set [4] (setting [12]), the “Efflux (retained activity) 0.5h SVG p12” value is on record as 94.55 ± 7.92 % total activity (CPM) /106 cells. Also, in data set [4] (1 h after wash), the “Efflux (retained activity) 1h SVG p12” value is 88.05 ± 6.90 % total activity (CPM) /106 cells. The “Efflux (retained activity) 2h SVG p12” value in [4] (2 h after wash) is given as 83.93 ± 6.98 % total activity (CPM) /106 cells. Besides, the “Efflux (retained activity) 4h SVG p12” value in data set [4] (4 h after wash) is recorded as 73.44 ± 3.92 % total activity (CPM) /106 cells. In addition, the “Efflux (retained activity) 24h SVG p12” value in data set [4] (24 h after wash) was 17.62 ± 1.81 % total activity (CPM) /106 cells. In addition, the “Efflux (retained activity) 0.5h U87 MG” value in data set [5] (setting [12]) is given as 89.28 ± 6.24 % total activity (CPM) /106 cells. Moreover, the “Efflux (retained activity) 1h U87 MG” value in data set [5] (1 h after wash) is 85.47 ± 3.64 % total activity (CPM) /106 cells. The “Efflux (retained activity) 2h U87 MG” value in data set [5] (2 h after wash) is 84.08 ± 7.95 % total activity (CPM) /106 cells. The “Efflux (retained activity) 4h U87 MG” value in [5] (4 h after wash) was 80.93 ± 6.97 % total activity (CPM) /106 cells. In [5] (24 h after wash), the “Efflux (retained activity) 24h U87 MG” value is given as 67.59 ± 2.23 % total activity (CPM) /106 cells. Further, the “Internalized activity 1h U87 MG” value in data set [6] (1 h) was 3.13 ± 0.31 % total activity (CPM) /106 cells. Also, the “Internalized activity 2h U87 MG” value in data set [6] (2 h) is 3.28 ± 0.26 % total activity (CPM) /106 cells. The “Internalized activity 4h U87 MG” value in [6] (4 h) is 5.00 ± 0.58 % total activity (CPM) /106 cells. In addition, the “Internalized activity 24h U87 MG” value in data set [6] (24 h) is 11.44 ± 0.62 % total activity (CPM) /106 cells. In addition, in [6] (48 h), the “Internalized activity 48h U87 MG” value is 15.08 ± 0.38 % total activity (CPM) /106 cells. Besides, the EC50 is 0.118 ± 0.008 µM in data set [2]; more than 0.3 µM in data set [2] (24 h); more than 0.2 µM in data set [2] (48 h); 0.025 ± 0.007 µM in data set [3] (24 h); 0.032 ± 0.009 µM in [3] (48 h); 0.045 ± 0.002 µM in [3] (72 h). Also, the “Uptake 1h SVG p12” value in data set [7] (1 h) is 2.67 ± 0.20 % total activity (CPM) /106 cells. The “Uptake 2h SVG p12” value in data set [7] (2 h) is recorded as 4.02 ± 0.41 % total activity (CPM) /106 cells. Further, in [7] (4 h), the “Uptake 4h SVG p12” value is recorded as 5.36 ± 0.94 % total activity (CPM) /106 cells. Moreover, the “Uptake 24h SVG p12” value in data set [7] (24 h) is given as 7.90 ± 0.41 % total activity (CPM) /106 cells. Moreover, the “Uptake 48h SVG p12” value in [7] (48 h) is on record as 7.30 ± 0.44 % total activity (CPM) /106 cells. The “Uptake 1h U87 MG” value in data set [8] (1 h, 37 °C) was 2.50 ±1.00 % total activity (CPM) /106 cells. Moreover, the “Uptake 2h U87 MG” value in data set [8] (2 h) is 3.23 ±0.61 % total activity (CPM) /106 cells. Besides, the “Uptake 4h U87 MG” value in [8] (4 h) was 6.08 ± 0.60 % total activity (CPM) /106 cells. Besides, the “Uptake 24h U87 MG” value in [8] (24 h) is given as 14.11 ± 0.95 % total activity (CPM) /106 cells. For the same molecule, the “Uptake 48h U87 MG” value in [8] (48 h) was 18.95 ± 0.45 % total activity (CPM) /106 cells. Moreover, in data set [9] (1 h), the “Internalized activity 1h SVG p12” value is given as 1.72 ±0.14 % total activity (CPM) /106 cells. In data set [9] (2 h), the “Internalized activity 2h SVG p12” value is 1.90 ± 0.14 % total activity (CPM) /106 cells. For the same molecule, the “Internalized activity 4h SVG p12” value in data set [9] (4 h) is listed as 3.05 ±0.48 % total activity (CPM) /106 cells. Moreover, in data set [9] (24 h), the “Internalized activity 24h SVG p12” value was 6.80 ± 0.32 % total activity (CPM) /106 cells. In addition, in data set [9] (48 h), the “Internalized activity 48h SVG p12” value was 5.98 ± 0.36 % total activity (CPM) /106 cells.
Consider `N=C(N)NCCC[C@@H]1NC(=O)[C@H](CCCCNC(=O)[C@H](CCCCNC(=O)c2cc(-c3ccccn3)nc(-c3ccccn3)c2)NC(=O)COCCOCCNC(=O)CN2CCN(CC(=O)O)CCN(CC(=O)O)CC2)NC(=O)[C@@H](Cc2ccccc2)NC(=O)[C@H](CC(=O)O)NC(=O)CNC1=O` [^natCu-NOTA-TP-c(RGDfK), metal not drawn], for which the “release of copper or platinum (mass spectrometry)” value in [10] is given as “no detectable release of copper or platinum”. The “solubility in aqueous media” value in data set [11] is “limited solubility in aqueous media”.
